Results taken from patent US20230123334A1, “AMINO LIPID COMPOUND, PREPARATION METHOD THEREFOR, AND APPLICATION THEREOF” (SHENZHEN SHENXIN BIOTECHNOLOGY CO., LTD., priority 2020, published 2023).

What was measured:
HEK293 cells [1] = assay: Preliminary screening as DNA vectors, GFP transfection of HEK293 cells; format: cell-based; conditions: HEK293 cells; lipid/DOPE liposome with 75 ng plasmid DNA (psin-EGFP-IRES-Puro); number of cells expressing GFP divided by total number of nuclei (Hoechst)
Outline: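 HEK293 cells in DMEM/10% FBS transfected with 75 ng EGFP plasmid per well complexed with amino lipid/DOPE liposomes in pH 5.6 sodium acetate. Hoechst nuclear stain added 20-24 h post-transfection, then cells cultured another 20-24 h. Confocal imaging gives GFP-positive cells as % of total nuclei.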

HEK293 cells [2] = assay: Preliminary screening as mRNA vectors, EGFP mRNA transfection of HEK293 cells; format: cell-based; conditions: HEK293 cells, 96-well plates, EGFP mRNA 50 ng per well; percentage of GFP fluorescent cells relative to total number of cells (Hoechst)
Outline: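 HEK293 cells in DMEM plus 10% FBS transfected in 96-well format with 50 ng EGFP mRNA per well; Lipofectamine2000 served as positive control. Read-out is the percentage of GFP-fluorescent cells among total cells, counted by Hoechst nuclear stain.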

| SMILES | Absolute DNA transfection efficiency in HEK293 cells (HEK293 cells [1]) [%] | Absolute mRNA transfection efficiency in HEK293 cells (HEK293 cells [2]) [%] |
| --- | --- | --- |
| CCCCCCCCCCCNc1nc(NCCCCCCCC)nc(NCCN2CCCC2)n1 [Compound N8N11D3] | 3.6 | 4.2 |
| CCCCCCCCCCCCCNc1nc(NCCCCCCCCCCCC)nc(NCCN(CC)CC)n1 [Compound N12N13D7] | 0.2 | 0.3 |
| CCCCCCCCCCCCCCCCCCSc1nc(NCCCN2CCOCC2)nc(SCCCCCCCCCCCCCCCC)n1 [Compound S16S18D8] | 0.3 | 1.9 |
| CCCCCCCCCCCNc1nc(NCCCCCCCCC)nc(NCCN2CCOCC2)n1 [Compound N9N11D2] | 0.0 | 0.3 |
| CCCCCCCCCCCCCNc1nc(NCCCCCCCCCCCCC)nc(NCCCN(C)C)n1 [Compound N13N13D6] | 2.5 | 0.2 |
| CCCCCCCCCCCSc1nc(NCCCN2CCOCC2)nc(SCCCCCCCCC)n1 [Compound S9S11D8] | 21.8 | 24.4 |
| CCCCCCCCCCCCCNc1nc(NCCCCCCCCCCC)nc(NCC2CCN(C)CC2)n1 [Compound N11N13D10] | 0.0 | 0.0 |
| CCCCCCCCCCCCCCCCNc1nc(NCCCCCC)nc(NCCN2CCOCC2)n1 [Compound N6N16D2] | 0.0 | 0.1 |
| CCCCCCCCCCCCCCCCSc1nc(NCCN2CCCCC2)nc(SCCCCCCCCCCCCCC)n1 [Compound S14S16D4] | 0.6 | 0.0 |
| CCCCCCCCCCCSc1nc(NCCCN(C)C)nc(SCCCCCCCCCC)n1 [Compound S10S11D6] | 8.2 | 83.8 |
| CCCCCCCCCCCCNc1nc(NCCN2CCN(C)CC2)nc(N(CCCCCCCCCCCC)CCCCCCCCCCCC)n1 [N12^2N12D5] | 0.5 | 2.2 |
| CCCCCCCCCNc1nc(NCCCCCC)nc(NCCN2CCCC2)n1 [Compound N6N9D3] | 0.3 | 0.4 |
| CCCCCCCCCCCCCCCCSc1nc(NCC2CCN(C)CC2)nc(SCCCCCCCCCCCCCC)n1 [Compound S14S16D10] | 2.7 | 0.8 |
| CCCCCCCCCCCCCCCSc1nc(NCCN(C)C)nc(SCCCCCCCCCCCCCCC)n1 [Compound S15S15D1] | 1.0 | 0.5 |
| CCCCCCCCCCCCN(CCCCCCCCCCCC)c1nc(NCCCCCCCC)nc(NCCN2CCCCC2)n1 [N8^2N12D4] | 0.0 | 0.2 |
| CCCCCCCCCCCCCCCNc1nc(NCCCCCCCCCCCCCCC)nc(NCCN(C)C)n1 [Compound N15N15D1] | 2.3 | 0.0 |
| CCCCCCCCNc1nc(NCCCCCCC)nc(NCCN(C)C)n1 [Compound N7N8D1] | 0.2 | 0.0 |
| CCCCCCCCCCCCCCCCCCSc1nc(NCCCN(C)C)nc(SCCCCCCCCCCCCCCC)n1 [Compound S15S18D6] | 1.0 | 0.0 |
| CCCCCCCCCCCCCCCSc1nc(NCCN(C)C)nc(SCCCCCCCC)n1 [Compound S8S15D1] | 8.1 | 0.4 |
| CCCCCCCCCCCCCCCSc1nc(NCCCN2CCOCC2)nc(SCCCCCCCC)n1 [Compound S8S15D8] | 23.0 | 8.0 |
| CCCCCCCCCCCCN(CCCCCCCCCCCC)c1nc(NCCN(C)C)nc(N(CCCCCCCCCCCC)CCCCCCCCCCCC)n1 [2N12^2N12D1] | 0.4 | 0.1 |
| CCCCCCCCCCCCCCCSc1nc(NCCCN2CCOCC2)nc(SCCCCCCCCCCCCCC)n1 [Compound S14S15D8] | 0.0 | 0.0 |
| CCCCCCCCCCCCCCCSc1nc(NCCCN2CCN(C)CC2)nc(SCCCCCCCCCCC)n1 [Compound S11S15D9] | 1.8 | 3.6 |
| CCCCCCCCCCCCCCCCNc1nc(NCCCCCCCCCCCCC)nc(NCCCN(C)C)n1 [Compound N13N16D6] | 1.0 | 3.8 |

| SMILES | Absolute DNA transfection efficiency in HEK293 cells (HEK293 cells [1]) [%] | Absolute mRNA transfection efficiency in HEK293 cells (HEK293 cells [2]) [%] |
| --- | --- | --- |
| CCCCCCCCCCCCCCCCNc1nc(NCCCCCC)nc(NCCN(CC)CC)n1 [Compound N6N16D7] | 0.0 | 0.5 |
| CCCCCCCCCCCCCCCCNc1nc(NCCCCCCCCCCCCCCC)nc(NCCN2CCCCC2)n1 [Compound N15N16D4] | 1.9 | 1.6 |
| CCCCCCCCCCCCCCCCCCNc1nc(NCCCCCCCCCCCCCCC)nc(NCCN2CCCCC2)n1 [Compound N15N18D4] | 1.6 | 1.9 |
| CCCCCCCCCCCCCCCNc1nc(NCCCCCCCC)nc(NCCCN2CCOCC2)n1 [Compound N8N15D8] | 1.1 | 0.3 |
| CCCCCCCCCCCCCCCCCCSc1nc(NCCN(CC)CC)nc(SCCCCCCCCCCCCCCCC)n1 [Compound S16S18D7] | 1.0 | 1.8 |
| CCCCCCCCCCCCNc1nc(NCCCCCCCC)nc(NCCCN2CCN(C)CC2)n1 [Compound N8N12D9] | 0.0 | 0.0 |
| CCCCCCCCCCCCNc1nc(NCCCCCCCCC)nc(NCCN2CCN(C)CC2)n1 [Compound N9N12D5] | 0.0 | 3.8 |
| CCCCCCCCCCCCCCCNc1nc(NCCCCCCCC)nc(NCC2CCN(C)CC2)n1 [Compound N8N15D10] | 3.2 | 3.3 |
| CCCCCCCCCCCCCCCNc1nc(NCCCN(C)C)nc(N(CCCCCCCCCCCC)CCCCCCCCCCCC)n1 [N15^2N12D6] | 6.3 | 9.0 |
| CCCCCCCCCCCCCCCCCCSc1nc(NCCN2CCOCC2)nc(SCCCCCCCCC)n1 [Compound S9S18D2] | 2.3 | 0.0 |
| CCCCCCCCCCCCCCCCCCNc1nc(NCCCCCCCCCCCCCCC)nc(NCCCN2CCN(C)CC2)n1 [Compound N15N18D9] | 0.7 | 0.0 |
| CCCCCCCCCCCCCCCSc1nc(NCCN(C)C)nc(SCCCCCCCCCC)n1 [Compound S10S15D1] | 6.8 | 0.0 |
| CCCCCCCCCCCCCCCSc1nc(NCCCN2CCN(C)CC2)nc(SCCCCCCCC)n1 [Compound S8S15D9] | 13.9 | 22.0 |
| CCCCCCNc1nc(NCCCCCC)nc(NCCCN2CCOCC2)n1 [Compound N6N6D8] | 0.0 | 0.0 |
| CCCCCCCCCCCCCCCSc1nc(NCCN(CC)CC)nc(SCCCCCCCCCC)n1 [Compound S10S15D7] | 7.2 | 0.0 |
| CCCCCCCCCCCCCNc1nc(NCCCCCCCCCCCCC)nc(NCCN2CCOCC2)n1 [Compound N13N13D2] | 0.0 | 0.9 |
| CCCCCCCCNc1nc(NCCCCCCCC)nc(NCCCN2CCN(C)CC2)n1 [Compound N8N8D9] | 0.7 | 0.0 |
| CCCCCCCCCCCCCCSc1nc(NCC2CCN(C)CC2)nc(SCCCCCCCC)n1 [Compound S8S14D10] | 41.1 | 60.5 |
| CCCCCCCCCCCCN(CCCCCCCCCCCC)c1nc(NCCCCCCCCC)nc(NCCN2CCCC2)n1 [N9^2N12D3] | 0.4 | 2.3 |
| CCCCCCCCCCCCSc1nc(NCCCN2CCOCC2)nc(SCCCCCCCCCC)n1 [Compound S10S12D8] | 20.9 | 5.4 |
| CCCCCCCCCNc1nc(NCCCCCCCCC)nc(NCCN(C)C)n1 [Compound N9N9D1] | 0.2 | 0.5 |
| CCCCCCCCCCCNc1nc(NCCCCCCCCC)nc(NCC2CCN(C)CC2)n1 [Compound N9N11D10] | 0.0 | 0.0 |
| CCCCCCCCCCCCNc1nc(NCCCCCCCC)nc(NCCCN2CCOCC2)n1 [Compound N8N12D8] | 0.0 | 0.0 |
